The text below walks through data of patent US5891917A, “Certain acrylonitrile-sulfonamide derivatives” (Sugen, Inc., priority 1997, dated 1999).

The test system of one assay is 3T3/HER2 cells. In words: 3T3 Growth Assay (3T3/HER2). The class given is cell-based. From the text:
The following examples illustrate the ability of the exemplary compounds to inhibit receptor tyrosine kinases, such as HER2 and/or EGFR. The following target cells were used for cellular kinase assays: NIH3T3 clone C7 (Honegger et al., supra) engineered to over-express human EGF receptor; NIH3T3 cells engineered to over-express a chimeric receptor containing the EGFR extracellular domain and the HER2 intracellular kinase domain; the human mammary carcinoma line BT474 (ATCC HTB2) expressing HER2; and the human glioblastoma line U1242 that expresses PDGFR-beta. Growth assays were carried out using human mammary epithelial SKBR3 (ATCC HTB30) cells (SKBR3 cells over-express HER2), SKOV3 (ATCC HTB77) human ovarian cancer cell line (SKOV3 cells also over-express HER2), A431 cells (A431 cells over-express EGFR) MCF7 human breast carcinoma cells, MCF7 cells overexpressing the HER2 kinase (MCF7-HER2), NIH3T3 cells, and NIH3T3 cells overexpressing the HER2 kinase (3T3-HER2.
The 3T3 growth assay was carried out as follows: […]
(1) HER2C7 (engineered to express HER2) and NIH3T3C7 (as the control) cells are used for this assay. NIH3T3C7 cells are seeded at 2500 cells/well, […] in 10% CS+2 mM GLN DMEM, in a 96 well plate; HER2C7 cells are seeded at 6000 cells/well, 100 μl/well in 2% FBS+2 mM GLN DMEM, in a 96 well plate. Cells are incubated at 37° C., 5% CO2 overnight to allow for cell attachment to the plate;
(2) The […] compound is added to the cells at day 2. The compounds are prepared in the appropriate growth medium (10% CS+2 mM) GLN DMEM for NIH3T3C7 cells; 2% FBS+2 mM GLN DMEM for HER2C7 cells) in a 96 well plate, and serially diluted. A total of 100 μl/well medium of the diluted compounds is added into the cells. The total volume of each well is 200 μl. Quadruplicates (wells) and 11 concentration points are applied to each compound tested.
(3) After the cells are treated with the compound for 4 days, the cells are washed with PBS and fixed with 200 μl/well ice-cold 10% TCA for one hour at 0°-5° C. condition.
(4) Remove TCA and rinse wells 5 times with deionized water. Dry plates upside down with paper towels. Stain cells with 0.4% SRB at 100 μl/well for 10 minutes.
(5) Pour off SRB and rinse plate 5 times with 1 % acetic acid. Dry plate completely.
(6) Solubilize the dye with 10 mM Tris-base at 100 μl/well for 10 minutes on a shaker.
(7) Read the plate at dual wavelengths at 570 nm and 630 nm on Dynatech Elisa plate reader.

The target of another assay is T1, Insulin Receptor (Homo sapiens, UniProt P06213).
T1 construct: expressed in transfected cells; host or cells: H25 (NIH3T3 line overexpressing Insulin Receptor)
In words: Cellular Insulin Receptor ELISA. As to conditions: H25 cells, 100 nM insulin; read-out: ELISA DATA: IR. In kind it is cell-based. As to the method: Cellular Insulin Receptor ELISA (Version I)
The following protocol describes the cell line, reagents and procedures used to measure phosphotyrosine level on Insulin Receptor, which indicates Insulin Receptor tyrosine kinase activity.
MATERIALS AND REAGENTS (1). The cell line used in this assay is H25 (ATCC #CRL 8017), an NIH3T3 cell line which overexpresses Insulin Receptor.
(2). H25 cells are grown in an incubator with 5% CO2 at 37° C. The growth media is DMEM+10% FBS (heat inactivated)+2 mM L-Glutamine.
(3). For ELISA plate coating, the monoclonal anti-IR antibody named BBE is used. Antibodies are purified by the Enzymology Lab, SUGEN, Inc.
(1). The cells, grown in tissue culture dish (10 cm, Corning 25020-100) to 80-90% confluence, are harvested with Trypsin-EDTA (0.25%, 0.5 ml/D-100, GIBCO).
(2). Resuspend the cells in fresh DMEM+10% FBS+2 mM L-Glutamine, and transfer to 96-well tissue culture plate (Coming, 25806-96) at 20,000 cells/well (100 ul/well). Incubate for 1 day then replace medium to 0.01% serum medium (90/ul) and incubate in 5% CO2 and 37° C. overnight.
(1). Coat the ELISA plate (Corning 25805-96) with Anti-IR Antibody at 0.5 ug/well in 100 ul PBS at least 2 hours.
(2). Remove the coating solution, and replace with 100 ul Blocking Buffer, and shake for 30 minutes. Remove the blocking buffer and wash the plate just before adding lysate.
(1). The drugs are tested in serum-free condition.
(2). Dilute drug stock (in 100% DMSO) 1:10 with DMEM in 96-well poly-propylene plate, and transfer 10 ul/well of this solution to the cells to achieve final drug dilution 1:100, and final DMSO concentration of 1.0%. Incubate the cells in 5% CO2 at 37° C. for 2 hours.
(3). Prepare fresh cell lysis buffer (HNTG*) HNTG 2 ml EDTA 0.1 ml Na3VO4 0.1 ml Na4P2O7 0.1 ml H20 7.3 ml HNTG* 10 ml.
(4). After drug incubation for two hours, transfer 10 ul/well of 1 μM Insulin in PBS to the cells (Final Conc=100 nM), and incubate at 5% CO2 at 37° C. for 10 minutes.
(5). Remove media and add 100 ul/well HNTG* and shake for 10 minutes. Look at cells under microscope to see if they are adequately lysed.
(6). Use a 12-channel pipette to scrape the cells from the plate, and homogenize the lysate by repeat aspiration and dispense. Transfer all the lysate to the antibody coated ELISA plate [V.2.(2)], and shake for 1 hour.
(7). Remove the lysate, wash the plate, transfer anti-pTyr (1:3,000 with TBST) 100 ul/well, and shake for 30 minutes.
(8). Remove anti-pTyr, wash the plate, transfer detection antibody (1:3,000 with TBST) 100 ul/well, and shake for 30 minutes.
(9). Remove detection antibody, wash the plate, and transfer fresh ABTS/H2O2 (1.2 ul H2O2 to 10 ml ABTS) 100 ul/well to the plate to start color development.

The mark [1] stands for this setting: read-out: Growth Data: 3T3/HER2 2% FBS.
The mark [2] stands for this setting: read-out: Growth Data: 3T3/HER2 10% FBS.

Where two headings read alike, the source gives them in different places.

T1 sequence (P06213 763-1382 limits assumed, species assumed): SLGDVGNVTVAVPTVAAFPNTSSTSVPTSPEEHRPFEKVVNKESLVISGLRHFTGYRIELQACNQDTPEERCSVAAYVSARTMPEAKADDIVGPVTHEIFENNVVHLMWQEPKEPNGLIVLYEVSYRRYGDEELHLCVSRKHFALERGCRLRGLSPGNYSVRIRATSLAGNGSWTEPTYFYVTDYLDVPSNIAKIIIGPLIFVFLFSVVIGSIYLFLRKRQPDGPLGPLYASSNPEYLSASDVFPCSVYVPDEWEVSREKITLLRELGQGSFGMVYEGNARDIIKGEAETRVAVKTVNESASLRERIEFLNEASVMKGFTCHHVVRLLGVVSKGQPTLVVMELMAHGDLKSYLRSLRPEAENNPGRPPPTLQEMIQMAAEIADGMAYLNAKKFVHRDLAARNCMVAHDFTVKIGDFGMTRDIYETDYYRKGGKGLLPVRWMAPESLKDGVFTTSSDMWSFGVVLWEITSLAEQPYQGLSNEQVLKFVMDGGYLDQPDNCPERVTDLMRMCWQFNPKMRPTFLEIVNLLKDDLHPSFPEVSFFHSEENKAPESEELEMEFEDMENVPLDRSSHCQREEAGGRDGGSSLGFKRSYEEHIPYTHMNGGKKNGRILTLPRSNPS
T1 sequence (P06213 28-758 partner limits assumed, species assumed): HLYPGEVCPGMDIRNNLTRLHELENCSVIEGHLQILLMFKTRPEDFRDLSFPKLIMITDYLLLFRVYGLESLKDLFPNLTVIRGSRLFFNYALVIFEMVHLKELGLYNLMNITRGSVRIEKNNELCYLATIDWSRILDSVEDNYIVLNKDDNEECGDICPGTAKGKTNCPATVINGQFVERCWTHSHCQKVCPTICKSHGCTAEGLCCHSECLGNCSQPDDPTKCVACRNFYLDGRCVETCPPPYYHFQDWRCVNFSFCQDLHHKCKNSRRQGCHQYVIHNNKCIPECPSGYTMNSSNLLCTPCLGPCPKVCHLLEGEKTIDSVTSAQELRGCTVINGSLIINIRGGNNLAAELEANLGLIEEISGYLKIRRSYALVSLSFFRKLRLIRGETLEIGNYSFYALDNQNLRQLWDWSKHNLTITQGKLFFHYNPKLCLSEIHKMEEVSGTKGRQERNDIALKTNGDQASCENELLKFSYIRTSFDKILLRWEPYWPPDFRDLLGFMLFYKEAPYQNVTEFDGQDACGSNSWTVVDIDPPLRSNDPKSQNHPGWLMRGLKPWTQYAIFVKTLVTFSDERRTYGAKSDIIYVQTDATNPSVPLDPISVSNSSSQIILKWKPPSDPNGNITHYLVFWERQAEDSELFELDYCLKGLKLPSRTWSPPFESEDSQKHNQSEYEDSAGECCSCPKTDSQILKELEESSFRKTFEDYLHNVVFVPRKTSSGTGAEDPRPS

As for `CC(C)(C)c1cc(/C=C(\C#N)S(=O)(=O)c2ccc(F)cc2)cc(C(C)(C)C)c1O` [Compound 740], the IC50 in the assay on 3T3/HER2 cells (setting [1]) was 3.8 µM; in the assay with 3T3/HER2 cells (setting [2]), 20 µM.
With `Cc1cc(/C=C(\C#N)S(=O)(=O)c2ccc(F)cc2)cc(C)c1O` [Compound 744], the IC50 with 3T3/HER2 cells (setting [1]) and in the assay on 3T3/HER2 cells (setting [2]) was above 100 µM throughout.
Consider `CC(C)(C)c1cc(/C=C(\C#N)S(=O)(=O)c2cccs2)cc(C(C)(C)C)c1O` [Compound 742], for which the values for the IC50 with 3T3/HER2 cells (setting [1]) and in the assay on 3T3/HER2 cells (setting [2]) were 7 µM and 38 µM, respectively.
Consider `N#C/C(=C\c1ccc(O)cc1Cl)S(=O)(=O)NCc1ccccc1` [Compound 733], for which the IC50 with 3T3/HER2 cells (setting [1]) was 60 µM; with 3T3/HER2 cells (setting [2]) it was above 100 µM; on Insulin Receptor, above 100 µM.
`CC(C)c1cc(/C=C(\C#N)S(=O)(=O)Cc2cccc(C(F)(F)F)c2)cc(C(C)C)c1O` [Compound 736]: the values for the IC50 with 3T3/HER2 cells (setting [1]), in the assay with 3T3/HER2 cells (setting [2]) and on Insulin Receptor were 18 µM, 55 µM and 15.1 µM, respectively.
In the case of `CC(C)c1cc(/C=C(\C#N)S(=O)(=O)c2ccccn2)cc(C(C)C)c1O` [Compound 747], the IC50 in the assay with 3T3/HER2 cells (setting [1]) and with 3T3/HER2 cells (setting [2]) was above 100 µM each time.
Take `CC(C)c1cc(/C=C(\C#N)S(=O)(=O)c2ccc(F)cc2)cc(C(C)C)c1O` [Compound 741, (E)-3-(3,5-Diisopropyl-4-hydroxyphenyl)-2-(4-fluorophenylsulfonyl)acrylonitrile]: the IC50 in the assay on 3T3/HER2 cells (setting [1]) worked out at 15 µM; with 3T3/HER2 cells (setting [2]), 75 µM; on Insulin Receptor, 9.2 µM.
On to `N#C/C(=C\c1ccc(O)cc1Cl)S(=O)(=O)NCCCc1ccccc1` [Compound 734], for which the IC50 is 55 µM in the assay on 3T3/HER2 cells (setting [1]), above 100 µM with 3T3/HER2 cells (setting [2]) and 51 µM on Insulin Receptor.
Turning to `CC(C)(C)c1cc(/C=C(\C#N)S(=O)(=O)Cc2cccc(C(F)(F)F)c2)cc(C(C)(C)C)c1O` [Compound 735], the IC50 was determined as 5 µM with 3T3/HER2 cells (setting [1]) and 22 µM in the assay on 3T3/HER2 cells (setting [2]).
The matching figures for `CC(C)c1cc(/C=C(\C#N)S(=O)(=O)c2cccs2)cc(C(C)C)c1O` [Compound 737]: 40 µM and 90 µM.
Taken in the same sequence, the figures for `CC(C)(C)c1cc(/C=C(\C#N)S(=O)(=O)c2ccsc2)cc(C(C)(C)C)c1O` [Compound 746] were 7 µM and 40 µM.
The matching figures for `Cc1cc(/C=C(\C#N)S(=O)(=O)c2ccccc2)cc(C)c1O` [Compound 748]: above 100 µM and above 100 µM.
As for `CC(C)c1cc(/C=C(\C#N)S(=O)(=O)/C(C#N)=C/c2cc(C(C)C)c(O)c(C(C)C)c2)cc(C(C)C)c1O` [Compound 745], at Insulin Receptor, the IC50 is 27 µM.
For the compound `CC(C)c1cc(/C=C(\C#N)S(=O)(=O)c2ccccc2)cc(C(C)C)c1O` [Compound 731], the figures for the IC50 in the assay on 3T3/HER2 cells (setting [1]), with 3T3/HER2 cells (setting [2]) and on Insulin Receptor were 12 µM, 70 µM and 12 µM, respectively.
As for `CC(C)c1cc(/C=C(\C#N)S(=O)(=O)c2ccsc2)cc(C(C)C)c1O` [Compound 738], the IC50 in the assay with 3T3/HER2 cells (setting [1]) was 45 µM; in the assay with 3T3/HER2 cells (setting [2]) it was above 100 µM.
With `CC(C)c1cc(/C=C(\C#N)S(=O)(=O)NCc2ccccc2)cc(C(C)C)c1O` [Compound 732], the IC50 with 3T3/HER2 cells (setting [1]) was found to be 15 µM; in the assay on 3T3/HER2 cells (setting [2]), 95 µM; at Insulin Receptor, 8.8 µM.
